The values that follow come from PubChem BioAssay (NCI).

Holding throughout (assay): NCI tumour cell line growth inhibition, 48 h
For assay [1], the system named is A498 renal.
Assay [2] concerns CAKI-1 renal.
Assay [3] concerns CCRF-CEM leukemia.
The test system of assay [4] is COLO 205 colon.
For assay [5], the system named is HL-60(TB) leukemia.
The subject of assay [6] is M14 melanoma.
Assay [7] has as its system MDA-MB-231 breast.
Assay [8] has as its system MOLT-4 leukemia.
Assay [9] has as its system NCI/ADR-RES ovarian.
Assay [10] deals with SF-295 CNS.
Assay [11] relates to SK-MEL-5 melanoma.
The test system of assay [12] is U251 CNS.

Each structure is given as a SMILES string.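 The compound was tested at five concentrations on cells cultured in 96-well plates, with a 48-hour exposure period. GI50 marks 50% less growth. Definition used: TGI = concentration required for complete inhibition of growth.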

Turning to `CC(=O)O[C@@H](C1C[C@@H](C)[C@H]2[C@@](O)(O1)[C@H](O)[C@@]1(C)C3=CC[C@H]4C(C)(C)[C@@H](OC5OCC(O)C(O)C5O)CC[C@@]45C[C@@]35CC[C@]21C)C(C)(C)O` (stereo not given in full), the TGI was 63 µM in [1]; more than 100 µM in assay [2]; 24.4 µM in assay [3]; 48.4 µM in assay [4]; 15.3 µM in assay [5]; more than 100 µM in assay [6]. Also, the TGI in assay [7] is 37.2 µM; in assay [8] it was 44.8 µM; in assay [9] it was more than 100 µM; in [10], 48.1 µM; in assay [11] it was 32.7 µM; in [12] it was 36 µM.

Turning to `Nc1nc(N)c2nc(CNc3ccc(C(=O)NC(CCCCNC(=O)c4ccccc4C(=O)O)C(=O)O)cc3)cnc2n1` (stereo not given), the GI50 is 0.0821 µM in [1]; 0.0237 µM in assay [2]; 0.00306 µM in assay [3]; 0.537 µM in assay [4]; 0.00244 µM in assay [5]; 0.0191 µM in assay [10]. In addition, the GI50 in assay [11] is 0.0913 µM; in assay [12], 0.0385 µM. Moreover, the TGI in assay [1], in assay [2], in assay [3], in [4], in [5] and in assay [6] was more than 100 µM in each case. Besides, the TGI in assay [7], in [8], in [9], in [10], in assay [11] and in [12] was more than 100 µM throughout.

As for `COc1ccc(N2C(=O)CC(c3c[nH]c4ncccc34)C2=O)cc1` (stereo not given), the TGI in assay [1] was more than 100 µM; in assay [2], 37.2 µM; in assay [3] it was 16.8 µM; in assay [4], 36.5 µM; in assay [5], more than 37.4 µM; in [6] it was 44.9 µM. In addition, the TGI was 40.3 µM in [7]; more than 41 µM in assay [8]; more than 79.1 µM in [9]; more than 100 µM in [10]; more than 100 µM in [11]; more than 100 µM in [12].

For `O=C(NNC(=O)c1ccccc1O)c1ccc(O)cc1`, the TGI in assay [1], in [2], in assay [3], in [4], in assay [5] and in assay [6] was more than 100 µM in each case. Moreover, the TGI in assay [7] was 69.7 µM; in assay [8], more than 100 µM; in [9] it was 90.9 µM; in assay [10], more than 100 µM; in assay [11] it was more than 100 µM; in assay [12], more than 100 µM.

Turning to `CC(C)(C)C1CCC2c3c([nH]c4ccccc34)C3C(=O)N(c4ccc5c(c4)C(=O)c4ccccc4C5=O)C(=O)C3C2C1` (stereo not given), the TGI in assay [1], in [2], in [3], in assay [4], in assay [5] and in assay [6] was more than 100 µM in each case. Besides, the TGI in assay [7], in [8], in assay [9], in assay [10], in [11] and in assay [12] was more than 100 µM each time.

For `Cc1cc2c(cc1Cl)SC(NNc1ccc([N+](=O)[O-])cc1)=NS2(=O)=O`, the TGI in assay [1], in [2], in assay [3], in [4], in [5] and in assay [6] was more than 10 µM in each case. In addition, the TGI in assay [7], in [8], in assay [9], in [10], in [11] and in [12] was more than 10 µM in each case.

For `C=CCn1c(-c2ccc(-c3cs/c(=N\N=O)n3CC=C)cc2)cs/c1=N\N=O`, the TGI in assay [1], in [2], in assay [3], in assay [4], in assay [5] and in assay [6] was more than 100 µM each time. For the same molecule, the TGI is 69.3 µM in [7]; more than 100 µM in [8]; more than 100 µM in [9]; more than 100 µM in assay [10]; more than 100 µM in assay [11]; more than 100 µM in assay [12].

As for `N#Cc1nc(COCCOCc2ccc(F)cc2)oc1N`, the TGI in [1], in assay [2], in assay [3], in assay [4], in [5] and in [6] was more than 100 µM in each case. For the same molecule, the TGI in assay [7], in assay [8], in [9], in assay [10], in assay [11] and in assay [12] was more than 100 µM throughout.

In the case of `CCOC(=O)C(=O)C(CCC(=O)c1ccc2ccccc2c1O)C(=O)OCC` (stereo not given), the TGI in assay [1], in assay [2], in assay [3], in [4], in assay [5] and in assay [6] was more than 100 µM throughout. Also, the TGI in assay [7], in assay [8], in assay [9], in assay [10], in [11] and in assay [12] was more than 100 µM throughout.

For `CN(C)CC1CN=C(NC(=O)Nc2ccccc2)O1` (stereo not given), the TGI in [1], in assay [2], in assay [3], in assay [4], in assay [5] and in assay [6] was more than 100 µM each time. Further, the TGI in assay [7], in assay [8], in [9], in [10], in assay [11] and in assay [12] was more than 100 µM in each case.

Consider `COc1ccc(CCNC(=O)[C@H]2CCCC[C@@H]2CCO)cc1OC`, for which the TGI in [1], in assay [2], in assay [3], in assay [4], in assay [5] and in [6] was more than 100 µM throughout. Moreover, the TGI in assay [7], in assay [8], in [9], in assay [10], in [11] and in assay [12] was more than 100 µM each time.

On to `Cc1cc(-c2nc3cccc(F)c3s2)ccc1N`, for which the TGI is more than 100 µM in assay [1]; more than 100 µM in assay [2]; 80.5 µM in assay [3]; more than 100 µM in assay [4]; more than 100 µM in assay [5]; more than 100 µM in [6]. The TGI in assay [7] is more than 100 µM; in assay [8], more than 96.1 µM; in assay [9], more than 100 µM; in assay [10], more than 100 µM; in assay [11] it was more than 100 µM; in assay [12] it was more than 100 µM.

Take `CC1=NN(C(=O)CC(=O)Nc2cccc(Cl)c2)C(=O)C1N=Nc1ccc(C(=O)O)cc1` (stereo not given): the TGI in assay [1], in [2], in assay [3], in [4], in assay [5] and in assay [6] was more than 100 µM in each case. Moreover, the TGI in assay [7], in assay [8], in assay [9], in assay [10], in assay [11] and in [12] was more than 100 µM throughout.

For the molecule `Cc1nc2c(=O)n3c4c(cccc4c2o1)CCC3`, the TGI in assay [1], in assay [2], in assay [3], in [4], in assay [5] and in assay [6] was more than 100 µM throughout. Moreover, the TGI in assay [7], in [8], in [9], in assay [10], in assay [11] and in assay [12] was more than 100 µM throughout.

On to `CCOC(=O)/C(C#N)=C/c1ccc2c(c1)CC1(C2)Cc2cc(CC)c(C(C)O)cc2C1` (stereo not given), for which the TGI in assay [1] is more than 90.4 µM; in assay [2], more than 100 µM; in assay [3], 27.2 µM; in assay [4], 66.2 µM; in assay [5], 8.51 µM; in assay [6], 16.8 µM. For the same molecule, the TGI in [7] was 27.1 µM; in assay [8], more than 58.6 µM; in assay [9], 55.9 µM; in [10], 44.3 µM; in [11], 16.8 µM; in assay [12] it was 20.3 µM.

Take `O=C(/C=C(\O)c1ccccc1)c1cc(-c2ccccc2)n(-c2ccccc2)n1`: the TGI in assay [1] is more than 100 µM; in [2], 54.5 µM; in [3], 7.16 µM; in assay [4] it was 37.4 µM; in assay [5], more than 100 µM; in assay [6], 55.7 µM. The TGI in assay [7] is 64.4 µM; in assay [8] it was 4.51 µM; in assay [9], more than 100 µM; in assay [10], more than 100 µM; in [11], 48.7 µM; in assay [12], 62.6 µM.

Consider `CC[C@@H]1/C=C/C=C/C[C@H](C)[C@@H](O)[C@](C)(O)C(=O)[C@H](C)[C@@H](O)[C@H](C)C(=O)[C@H](C)[C@@H](O)[C@H](C)/C=C/C(=O)O[C@H]2[C@@H](C)[C@@H](CC1)O[C@@]1(CC[C@@H](C)[C@@H](CC(C)O)O1)[C@@H]2C` (stereo not given in full), for which the TGI in assay [1] is 9.12 µM; in assay [2], 12.7 µM; in assay [3], 6.05 µM; in assay [4], 1.99 µM; in assay [5] it was 4.25 µM; in assay [6], 6.52 µM. For the same molecule, the TGI in assay [7] was 6.65 µM; in assay [8] it was 6.26 µM; in assay [9], 5.48 µM; in [10], 9.05 µM; in [11] it was 1.7 µM; in assay [12], 11.1 µM.

Consider `Cc1c(C)c(S(=O)(=O)N(CCCCCON)OCCCN)c(C)c2c1OC(C)(C)CC2`, for which the TGI in [1] worked out at 28.3 µM; in [2], 16 µM; in [3], 3.47 µM; in [4], 10.3 µM; in assay [5], 17.3 µM; in [6], 18.8 µM. Moreover, the TGI in [7] was 30.4 µM; in assay [8] it was 30 µM; in assay [9], 31 µM; in assay [10] it was 29.3 µM; in assay [11] it was 29.5 µM; in assay [12] it was 25.7 µM.

In the case of `CC1OC(OC2C(Oc3cc(O)c4c(c3)O[C@H](c3ccc(O)cc3)CC4=O)OC(CO)C(O)C2O)C(O)C(O)C1O` (stereo not given in full), the TGI in assay [1], in assay [2], in [3], in [4], in [5] and in assay [6] was more than 100 µM throughout. Besides, the TGI in assay [7], in [8], in assay [9], in [10], in assay [11] and in assay [12] was more than 100 µM in each case.

For the molecule `S=C1N=C(Cl)/C(=C\c2ccccc2)N1`, the TGI in assay [1] was more than 100 µM; in assay [2] it was more than 100 µM; in [3], more than 31.6 µM; in assay [4], more than 100 µM; in assay [5], more than 100 µM; in assay [6], more than 100 µM. In addition, the TGI in [7], in assay [8], in assay [9], in [10], in assay [11] and in assay [12] was more than 100 µM throughout.

Regarding `CC#CC(O)(C(=O)OC1CC2CCC(C1)N2C)C1CCCC1` (stereo not given), the TGI in assay [1], in assay [2], in assay [3], in [4], in assay [5] and in assay [6] was more than 100 µM throughout. For the same molecule, the TGI in assay [7], in assay [8], in assay [9], in [10], in assay [11] and in assay [12] was more than 100 µM in each case.
